PubChem BioAssay (NCI)
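Where inhibition never reached the appropriate level, the endpoint shown equals the highest concentration tested. Otherwise, values were interpolated linearly from a five-concentration, 48-hour dose response in 96-well plates. Here, GI50 denotes the concentration required for 50% inhibition of growth. TGI denotes the concentration required for complete inhibition of growth.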

Experiments:
Assay in all cases: NCI tumour cell line growth inhibition, 48 h
[1] = tested on: M19-MEL melanoma
[2] = tested on: DMS 114 small cell lung
[3] = tested on: RXF-631 renal
[4] = tested on: HOP-18 NSCLC
[5] = tested on: KM20L2 colon
[6] = tested on: SNB-78 CNS
[7] = tested on: LXFL 529 NSCLC
[8] = tested on: P388 leukemia
[9] = tested on: P388/ADR leukemia
[10] = tested on: XF 498 CNS
[11] = tested on: SN12K1 renal

For `CCC1=C(C[C@H]2NCCc3cc(OC)c(OC)cc32)C[C@H]2c3cc(OC)c(OC)cc3CCN2C1`, the TGI [1] was 0.0983 µM, the TGI [2] was 0.0598 µM and the TGI [3] was 1.43 µM. The TGI [4] was > 100 µM, the TGI [5] was 0.14 µM and the TGI [6] was 1.32 µM. For the same molecule, the TGI [7] was 6.4 µM.

For `Cc1ccc(N2C(=O)C3CSCN3C2=O)cc1` (stereo not drawn), the TGI [8] was > 100 µM, the TGI [1] was > 100 µM and the TGI [2] was > 100 µM. The TGI [9] was > 100 µM, the TGI [10] was > 100 µM and the TGI [4] was > 100 µM. The GI50 [6] was > 100 µM, the TGI [6] was > 100 µM and the TGI [11] was > 100 µM.

With `O=C1c2ccncc2C(=O)c2c(O)ccc(O)c21` the TGI [1] was 9.58 µM, the TGI [2] was 13 µM and the TGI [10] was 15.2 µM. It also gave a TGI [4] of 25.5 µM, a TGI [5] of 8.12 µM and a TGI [7] of 22 µM.

For `Cc1cc2c(=O)c3ccc(Cl)cc3[nH]c2c(C(N)=O)c1C`, the TGI [1] was > 100 µM, the TGI [2] was > 100 µM and the TGI [3] was > 100 µM. The TGI [10] was > 100 µM, the TGI [5] was > 100 µM and the TGI [6] was > 100 µM. For the same molecule, the TGI [7] was > 100 µM.

For `Cc1cc(=O)[nH]c(NNC(C#N)c2ccccc2O)n1` (stereo not drawn), the TGI [1] was > 100 µM, the TGI [2] was 60.9 µM and the TGI [4] was > 100 µM. For the same molecule, the TGI [5] was > 100 µM.
